Assay results published in ChEMBL document CHEMBL4038316, “Enantioselective Synthesis and in Vivo Evaluation of Regioisomeric Analogues of the Antimalarial Arterolane” (J Med Chem, 2017).
In brackets after ≈: the same amount, converted by molar mass.

Tests used:
Plasmodium berghei [1] = test: Antiplasmodial activity against Plasmodium berghei infected in Swiss Webster mouse assessed as cure rate at 6 mg/kg/day administered for 4 days via oral gavage starting at 1 hr post infection measured after 30 days relative to control; format: functional
Plasmodium falciparum [2] = test: Antiplasmodial activity against chloroquine-resistant Plasmodium falciparum W2 infected in human RBC after 48 hrs by YOYO-1 staining-based flow cytometry method; format: functional; conditions: W2, 48 h
Liver [3] = test: (§1) Half life in mouse liver microsomes in absence of NADPH; format: ADME, microsome; conditions: microsomes
Liver [4] = conditions: mouse, microsomes
Description: (§3) Intrinsic clearance in mouse liver microsomes assessed per mg of protein

Plasmodium berghei [5] = test: Antiplasmodial activity against Plasmodium berghei infected in Swiss Webster mouse assessed as cure rate at 4 mg/kg/day administered for 4 days via oral gavage starting at 1 hr post infection measured after 30 days relative to control; format: functional
Liver [6] = test: (§2) Half life in mouse liver microsomes; format: ADME, microsome; conditions: microsomes
Liver [7] = test: Metabolic stability in mouse liver microsomes in absence of NADPH; format: ADME, microsome
in vitro = conditions: mouse, liver microsomes
Description: as §3

[8] = as §2; format: ADME, microsome; conditions: liver microsomes
Plasmodium berghei [9] = test: Antiplasmodial activity against Plasmodium berghei infected in Swiss Webster mouse assessed as cure rate at 13.6 mg/kg/day administered for 4 days via oral gavage starting at 1 hr post infection measured after 30 days relative to control; format: functional
Plasmodium berghei [10] = test: Antiplasmodial activity against Plasmodium berghei infected in Swiss Webster mouse assessed as cure rate at 1 mg/kg/day administered for 4 days via oral gavage starting at 1 hr post infection measured after 30 days relative to control; format: functional
Plasmodium berghei [11] = test: Antiplasmodial activity against Plasmodium berghei infected in Swiss Webster mouse assessed as cure rate at 10 mg/kg/day administered for 4 days via oral gavage starting at 1 hr post infection measured after 30 days relative to control; format: functional
physchem = conditions: PBS, pH 7.4
Description: (§4) Kinetic solubility of the compound in PBS at pH 7.4

Plasmodium berghei [12] = test: Antiplasmodial activity against Plasmodium berghei infected in Swiss Webster mouse assessed as cure rate at 9.5 mg/kg/day administered for 4 days via oral gavage starting at 1 hr post infection measured after 30 days relative to control; format: functional
Plasmodium berghei [13] = test: Antiplasmodial activity against Plasmodium berghei infected in Swiss Webster mouse assessed as increase in cure rate administered for 4 days via oral gavage starting at 1 hr post infection measured after 30 days; format: functional; conditions: for ED50: Plasmodium berghei, po, read-out: PD50
Plasmodium berghei [14] = test: Antiplasmodial activity against Plasmodium berghei infected in Swiss Webster mouse assessed as cure rate at 4 mg/kg/day administered for 3 days via oral gavage starting at 1 hr post infection measured after 30 days relative to control; format: functional
Plasmodium berghei [15] = test: Antiplasmodial activity against Plasmodium berghei infected in Swiss Webster mouse assessed as cure rate at 4 mg/kg/day administered for 2 days via oral gavage starting at 1 hr post infection measured after 30 days relative to control; format: functional
Plasmodium berghei [16] = test: Antiplasmodial activity against Plasmodium berghei infected in Swiss Webster mouse assessed as cure rate at 2 mg/kg/day administered for 4 days via oral gavage starting at 1 hr post infection measured after 30 days relative to control; format: functional
Plasmodium berghei [17] = test: Antiplasmodial activity against Plasmodium berghei infected in Swiss Webster mouse assessed as cure rate at 4 mg/kg/day administered for 1 day via oral gavage starting at 1 hr post infection measured after 30 days relative to control; format: functional
Plasmodium berghei [18] = test: Antiplasmodial activity against Plasmodium berghei infected in Swiss Webster mouse assessed as cure rate at 0.5 mg/kg/day administered for 4 days via oral gavage starting at 1 hr post infection measured after 30 days relative to control; format: functional
[19] = as §1; format: ADME, microsome; conditions: liver microsomes
Plasmodium berghei [20] = test: Antiplasmodial activity against Plasmodium berghei infected in Swiss Webster mouse assessed as cure rate at 40 mg/kg/day administered for 1 day via oral gavage starting at 1 hr post infection measured after 30 days relative to control; format: functional
Plasmodium berghei [21] = test: Antiplasmodial activity against Plasmodium berghei infected in Swiss Webster mouse assessed as cure rate at 40 mg/kg/day administered for 2 days via oral gavage starting at 1 hr post infection measured after 30 days relative to control; format: functional
Plasmodium berghei [22] = test: Antiplasmodial activity against Plasmodium berghei infected in Swiss Webster mouse assessed as cure rate at 80 mg/kg/day administered for 1 day via oral gavage starting at 1 hr post infection measured after 30 days relative to control; format: functional
Plasmodium falciparum [23] = test: Antiplasmodial activity against Plasmodium falciparum Cam3.2_rev infected in human RBC assessed as time required to reduce early ring stage parasite viability by 50% by SYTO 61-staining-based flow cytometry; format: functional
Plasmodium falciparum [24] = test: Antiplasmodial activity against Plasmodium falciparum Cam3.2 infected in human RBC assessed as time required to reduce early ring stage parasite viability by 50% by SYTO 61-staining-based flow cytometry; format: functional
[25] = buffer, pH 7.4
Description: as §4

Compound | Activity (Plasmodium berghei [1]) | EC50 (Plasmodium falciparum [2]) [nM] | Activity (Plasmodium berghei [5]) | Stability (Liver [7]) | other results
O=C(C[C@H]1CC[C@]2(CC1)OO[C@]1(O2)C2CC3CC(C2)CC1C3)N1CCNCC1 | 100% | 1.9 | 100% |  | t1/2 (Liver [3]): 1.48 h; CLH (Liver [4]): 14.4 µL/min; t1/2 (Liver [6]): 0.802 h
NCCNC(=O)C[C@H]1CC[C@]2(CC1)OO[C@]1(O2)C2CC3CC(C2)CC1C3 | 20% | 3.6 | 0% |  | t1/2 (Liver [3]): 1.17 h; CLH (Liver [4]): 10.8 µL/min; t1/2 (Liver [6]): 1.07 h
CC(C)(CN)CNC(=O)C[C@H]1CC[C@]2(CC1)OO[C@]1(O2)C2CC3CC(C2)CC1C3 | 100% | 2.6 | 40% | Stable | CLH (Liver [4]): 4.3 µL/min; t1/2 (Liver [6]): 2.68 h
N[C@H]1CC[C@H](NC(=O)C[C@H]2CC[C@]3(CC2)OO[C@]2(O3)C3CC4CC(C3)CC2C4)CC1 | 80% | 4.5 | 80% |  | 
NC1CCN(C(=O)C[C@H]2CC[C@]3(CC2)OO[C@]2(O3)C3CC4CC(C3)CC2C4)CC1 | 100% | 1.3 | 100% | Stable | CLH (Liver [4]): 2.5 µL/min; t1/2 (Liver [6]): 4.62 h
NC(=O)CNC(=O)C[C@@H]1CCC[C@]2(C1)OOC1(O2)C2CC3CC(C2)CC1C3 (stereo not given in full) |  | 10.6 |  | Stable | microsomal CLint (in vitro): 18.6 µL/min/mg; half-life [8]: 0.622 h
CN1CCN(C(=O)C[C@@H]2CCC[C@]3(C2)OOC2(O3)C3CC4CC(C3)CC2C4)CC1 (stereo not given in full) | 0% | 4.4 | 0% |  | 
CC(C)(N)CNC(=O)C[C@H]1CC[C@]2(CC1)OOC1(O2)C2CC3CC(C2)CC1C3.Cc1ccc(S(=O)(=O)O)cc1 (stereo not given in full) |  |  |  |  | Activity (Plasmodium berghei [9]): 100%
CC(C)(CN)CNC(=O)C[C@@H]1CCC[C@]2(C1)OOC1(O2)C2CC3CC(C2)CC1C3 (stereo not given in full) | 0% | 4.1 | 0% | Stable | microsomal CLint (in vitro): 10.8 µL/min/mg; half-life [8]: 1.07 h
CN1CCN(C(=O)C[C@H]2CC[C@]3(CC2)OO[C@]2(O3)C3CC4CC(C3)CC2C4)CC1 | 0% | 4.9 | 0% |  | 
O=C(C[C@@H]1CCC[C@]2(C1)OOC1(O2)C2CC3CC(C2)CC1C3)N1CCNCC1 (stereo not given in full) | 20% | 2.9 | 0% | Stable | microsomal CLint (in vitro): 27.2 µL/min/mg; half-life [8]: 0.425 h
CC(C)(N)CNC(=O)C[C@@H]1CCC[C@]2(C1)OOC1(O2)C2CC3CC(C2)CC1C3.Cc1ccc(S(=O)(=O)O)cc1 (stereo not given in full) |  |  |  |  | Activity (Plasmodium berghei [9]): 100%
CC(C)(N)CNC(=O)C[C@@H]1CCC[C@]2(C1)OOC1(O2)C2CC3CC(C2)CC1C3 (stereo not given in full) | 60% | 3 |  | Stable | Activity (Plasmodium berghei [10]): 0%; Activity (Plasmodium berghei [11]): 100%; solubility kinetic (physchem): 429 µM (≈ 168 µg/mL); microsomal CLint (in vitro): 4.1 µL/min/mg; Activity (Plasmodium berghei [12]): 100%; PD100 (Plasmodium berghei [13]): 10 mg/kg/day; ED50 (Plasmodium berghei [13]): 6 mg/kg/day; half-life [8]: 2.82 h
O=C(C[C@@H]1CCC[C@]2(C1)OOC1(O2)C2CC3CC(C2)CC1C3)N1CCOCC1 (stereo not given in full) | 0% | 6.8 | 0% |  | 
O=C(C[C@@H]1CCC[C@]2(C1)OOC1(O2)C2CC3CC(C2)CC1C3)N1CCCCC1 (stereo not given in full) |  | 31.4 |  |  | 
NC1CCN(C(=O)C[C@@H]2CCC[C@]3(C2)OOC2(O3)C3CC4CC(C3)CC2C4)CC1 (stereo not given in full) |  | 3.9 |  | Stable | microsomal CLint (in vitro): 8.2 µL/min/mg; PD100 (Plasmodium berghei [13]): 4 mg/kg/day; half-life [8]: 1.41 h
NCCNC(=O)C[C@@H]1CCC[C@]2(C1)OOC1(O2)C2CC3CC(C2)CC1C3 (stereo not given in full) | 100% | 5.4 |  |  | Activity (Plasmodium berghei [14]): 20%; Activity (Plasmodium berghei [15]): 0%; Activity (Plasmodium berghei [10]): 0%; Activity (Plasmodium berghei [16]): 0%; Activity (Plasmodium berghei [17]): 0%; Activity (Plasmodium berghei [18]): 0%; half-life [19]: 2.27 h; microsomal CLint (in vitro): 8.2 µL/min/mg; Activity (Plasmodium berghei [20]): 0%; Activity (Plasmodium berghei [21]): 100%; Activity (Plasmodium berghei [22]): 20%; half-life [8]: 1.41 h
N[C@H]1CC[C@H](NC(=O)C[C@@H]2CCC[C@]3(C2)OOC2(O3)C3CC4CC(C3)CC2C4)CC1 (stereo not given in full) | 100% | 5.9 | 60% |  | 
NC(=O)CNC(=O)C[C@H]1CC[C@]2(CC1)OO[C@]1(O2)C2CC3CC(C2)CC1C3 | 0% | 9.2 | 0% | Stable | CLH (Liver [4]): 5.6 µL/min; t1/2 (Liver [6]): 2.07 h
O=C(C[C@H]1CC[C@]2(CC1)OO[C@]1(O2)C2CC3CC(C2)CC1C3)N1CCCCC1 | 0% | 57 | 0% |  | 
O=C(C[C@H]1CC[C@]2(CC1)OO[C@]1(O2)C2CC3CC(C2)CC1C3)N1CCOCC1 | 0% | 20.7 | 0% |  | 
c1cc([C@H]2CC[C@]3(CC2)OO[C@]2(O3)C3CC4CC(C3)CC2C4)ccc1OCCN1CCOCC1 [ARTEFENOMEL] |  |  |  |  | Time (Plasmodium falciparum [23]): 2 h; Time (Plasmodium falciparum [24]): 5 h
C[C@H]1[C@@H](O)O[C@@H]2O[C@@]3(C)CC[C@H]4[C@H](C)CC[C@@H]1[C@@]24OO3 [ARTENIMOL] |  |  |  |  | Time (Plasmodium falciparum [23]): 1 h; Time (Plasmodium falciparum [24]): 3 h
O=C(O)Cc1ccccc1Nc1c(Cl)cccc1Cl [DICLOFENAC] |  |  |  |  | CLH (Liver [4]): 12.5 µL/min
Cc1ncc2n1-c1ccc(Cl)cc1C(c1ccccc1F)=NC2 [MIDAZOLAM] |  |  |  |  | CLH (Liver [4]): 420 µL/min; t1/2 (Liver [6]): 0.0275 h
CC(C)(N)CNC(=O)C[C@H]1CC[C@]2(CC1)OO[C@]1(O2)C2CC3CC(C2)CC1C3 [OZ277] | 80 - 100% | 2.5 | 20 - 80% | Stable | Activity (Plasmodium berghei [10]): 0%; Activity (Plasmodium berghei [11]): 100%; Time (Plasmodium falciparum [23]): 1 h; CLH (Liver [4]): 5.4 µL/min; Time (Plasmodium falciparum [24]): 3 h; PD100 (Plasmodium berghei [13]): 10 mg/kg/day; ED50 (Plasmodium berghei [13]): 4 mg/kg/day; t1/2 (Liver [6]): 2.13 h
C[C@]12CC[C@H]3[C@@H](CCC4=CC(=O)CC[C@@]43C)[C@@H]1CC[C@@H]2O [TESTOSTERONE] |  |  |  |  | Kinetic_solubility [25]: 315 µM
